Experiment [1] has as its target T1, Gastrin/cholecystokinin type B receptor (Rattus norvegicus, UniProt P30553).
T1 sequence (P30553 whole entry): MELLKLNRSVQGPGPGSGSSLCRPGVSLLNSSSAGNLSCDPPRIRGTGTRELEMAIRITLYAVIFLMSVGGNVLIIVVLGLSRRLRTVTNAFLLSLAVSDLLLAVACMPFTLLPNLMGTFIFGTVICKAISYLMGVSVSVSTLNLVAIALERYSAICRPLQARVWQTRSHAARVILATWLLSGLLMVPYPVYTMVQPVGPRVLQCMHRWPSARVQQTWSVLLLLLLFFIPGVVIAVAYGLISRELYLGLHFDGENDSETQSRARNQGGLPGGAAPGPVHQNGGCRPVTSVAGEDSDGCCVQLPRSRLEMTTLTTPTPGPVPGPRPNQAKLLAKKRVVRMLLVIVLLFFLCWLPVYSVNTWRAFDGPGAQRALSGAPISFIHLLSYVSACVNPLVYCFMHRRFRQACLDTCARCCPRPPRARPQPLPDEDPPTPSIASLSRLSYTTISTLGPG

Several values for one entry are separate records, joined by “and”; a condition that tells them apart may be missing. Equal values may be shown once. Where a SMILES comes first, the peptide text is derived from it. [ ]: non-standard residue; d: D form. sY = N[C@@H](Cc1ccc(OS(=O)(=O)O)cc1)C(=O)O

As for `CN1C(=O)[C@@H](NC(=O)c2cc3ccccc3[nH]2)N=C(c2ccccc2)c2ccccc21` [1H-Indole-2-carboxylic acid (1-methyl-2-oxo-5-phenyl-2,3-dihydro-1H-benzo[e][1,4]diazepin-3-yl)-amide: 0.1C4H10O. 0.15CH2Cl2], the inhibition constant (Ki) (commonly a dissociation constant, usually derived from enzyme kinetics or from competition with a known ligand) was 275 nM and 195 nM.

On to `O=C(O)Cn1c(C(=O)Nc2nc(-c3ccccc3Cl)cs2)cc2ccccc21` [CAS_122077], for which the Ki was 489 nM and 2880 nM. The compound further returned a Ki in experiment [1] of 0.58 nM.

`CC[C@H](C)[C@H](NC(=O)[C@H](CCCNC(=N)N)NC(=O)[C@H](Cc1c[nH]cn1)NC(=O)[C@H](CO)NC(=O)[C@@H]1CCCN1C(=O)[C@H](CC(=O)O)NC(=O)[C@H](CC(C)C)NC(=O)[C@H](CC(N)=O)NC(=O)[C@H](CCC(N)=O)NC(=O)[C@H](CC(C)C)NC(=O)[C@H](CC(N)=O)NC(=O)[C@H](CCCCN)NC(=O)[C@@H](NC(=O)[C@@H](NC(=O)[C@H](CO)NC(=O)[C@H](CCSC)NC(=O)[C@H](CCCNC(=N)N)NC(=O)CNC(=O)[C@H](CO)NC(=O)[C@@H]1CCCN1C(=O)[C@H](C)NC(=O)[C@@H](N)CCCCN)[C@@H](C)CC)C(C)C)C(=O)N[C@@H](CO)C(=O)N[C@@H](CC(=O)O)C(=O)N[C@@H](CCCNC(=N)N)C(=O)N[C@@H](CC(=O)O)C(=O)N[C@@H](Cc1ccc(OS(=O)(=O)O)cc1)C(=O)N[C@@H](CCSC)C(=O)NCC(=O)N[C@@H](Cc1c[nH]c2ccccc12)C(=O)N[C@@H](CCSC)C(=O)N[C@@H](CC(=O)O)C(=O)N[C@@H](Cc1ccccc1)C(N)=O` [CHOLECYSTOKININ] (H-KAPSGRMSIVKNLQNLDPSHRISDRD[sY]MGWMDF-NH2) registered a Ki of 0.62 nM.

Compound `CSCC[C@H](NC(=O)[C@H](CC(C)C)NC(=O)[C@H](Cc1cnc[nH]1)NC(=O)CNC(=O)[C@@H](NC(=O)[C@H](C)NC(=O)[C@H](Cc1c[nH]c2ccccc12)NC(=O)[C@H](Cc1cnc[nH]1)NC(=O)[C@H](CC(N)=O)NC(=O)CN)C(C)C)C(N)=O` [NSC_5486814] displayed a Ki of 24 nM.

For the origin of these results see BindingDB's records for doi:10.1016/0014-2999(93)90722-t (Sanofi Recherche, 1993).
